Laboratory results reported in patent EP0429304A2, “Pyridone-carboxylic acid derivatives and their use as veterinary medicines” (SHIONOGI SEIYAKU KABUSHIKI KAISHA trading under the name of …, priority 1989, dated 1991).
Structures can show the parent of a compound that is named as a salt. Where two headings read alike, the source gives them in different places.

Tests used:
[1] = system: Mycoplasma hyopneumoniae (Mh) ST-11; assay: In vitro sensitivity test (liquid dilution method); assay type: cell-based; conditions: 37°C, 7 days
Description: (§1) Survey of the sensitivity of the compound (I) to various strains of microorganisms was performed by a liquid dilution method […] an agar dilution method, in which the bacteria used were of animal origin and included the following strains (15 strains out of 11 bacteria): Chicken-origin strain: Mycoplasma gallisepticum (MG), Mycoplasma synoviae (MS), Hemophilus paragallinarum (H.pg) and Escherichia coli (E.coli); Pig-origin strain: Mycoplasma hyopneumoniae (Mh), Hemophilus pleuropneumonia (H.pp) and Bordetella bronchiseptica (B.br); Fish-origin strain: Pasteurella piscicida (P.pis) and Streptococcus sp (Str.sp); others: Escherichia coli (E. coli), Salmonella typhimurium (S.typhi) and Staphylococcus aureus (S.au).
(§2) Of these bacteria, the strains belonging to MG, MS and Mh were cultured at 37°C for 7 days by a liquid dilution method, of which the culture medium comprised: 12 % horse-serum added "PPLO" (agar manufactured by Difco) medium for MG; 12 % pig-serum, 0.01 % βNAD (nicotinamide adenine dinucleotide) added Frey medium for MS; 0.5 % lactoalbumin added Hank's solution, 10 % horse-serum, 0.5 % yeast extract (25 %) for Mh, and the agar dilution method was applied to the strains belonging to H.pg, H.pp, S.typhi, E.coli, S.au and B.br. Specifically, the H.pg strain was cultured in a 5 % chicken-serum added chicken bouillon medium and the H.pp strain was cultured in a heart infusion agar added with 10 % sheep defibered blood and 0.05 % βNAD. In case of the H.pg and P.pp strains, observation was made after cultivation at 37°C for 20 hours under 10 % CO₂. Mueller Hinton agar (Difco) was used for the strains belonging to S.typhi, E.coli, S.au and B.br, and observation was made after cultivation at 37°C for 20 to 24 hours. P.pis and Str.sp, both being of fish-origin, were respectively cultured at 25°C for 40 to 48 hours in a 1.5 % NaCl added heart infusion agar and in a sensitive disk medium.

[2] = system: Mycoplasma gallisepticum (MG) T-7-T, TS-resistant strain isolated from the field; assay: In vitro sensitivity test (liquid dilution method); assay type: cell-based; conditions: 37°C, 7 days
Description: as §1, §2

[3] = system: Mycoplasma synoviae (MS) F10-2as; assay: In vitro sensitivity test (liquid dilution method); assay type: cell-based; conditions: 37°C, 7 days
Description: as §1, §2

[4] = system: Mycoplasma synoviae (MS) 1853; assay: In vitro sensitivity test (liquid dilution method); assay type: cell-based; conditions: 37°C, 7 days
Description: as §1, §2

[5] = system: Mycoplasma gallisepticum (MG) S6; assay: In vitro sensitivity test (liquid dilution method); assay type: cell-based; conditions: 37°C, 7 days
Description: as §1, §2

TS-resistant MG = assay: Experimental MG infection to chicken, through bait; assay type: in vivo; conditions: 9-days chicken; for Number of infected fowl/Number of fowl tested: 6.6 x 10³ CFU/fowl, dissection 6th day after inoculation
[6] = system: Staphylococcus aureus (S.au) 209P; assay: In vitro sensitivity test (agar dilution method); assay type: cell-based; conditions: 37°C, 20 to 24 hours
Description: as §1, §2

[7] = system: Escherichia coli (E.coli) JC-2; assay: In vitro sensitivity test (agar dilution method); assay type: cell-based; conditions: 37°C, 20 to 24 hours
Description: as §1, §2

[8] = system: Salmonella typhimurium (S.typhi) 13311; assay: In vitro sensitivity test (agar dilution method); assay type: cell-based; conditions: 37°C, 20 to 24 hours
Description: as §1, §2

[9] = system: TS-resistant strain of MG; assay type: in vivo, chicken; conditions: for Infectious index Left air sack + / Infectious index Left air sack ++ / Infectious index Left air sack +++ / Infectious index Left air sack - / Infectious index Right air sack + / Infectious index Right air sack ++ / Infectious index Right air sack +++ / Infectious index Right air sack -: count of fowl; for Number of infected fowl/Number of fowl tested: 3.5 x 10³ CFU/fowl
[10] = system: Hemophilus pleuropneumonia (H.pp) M-1; assay: In vitro sensitivity test (agar dilution method); assay type: cell-based; conditions: 37°C, 20 hours, 10 % CO₂
Description: as §1, §2

[11] = system: Pasteurella piscicida (P.pis) No. 2; assay: In vitro sensitivity test; assay type: cell-based; conditions: 25°C, 40 to 48 hours
Description: as §1, §2

[12] = system: Streptococcus sp (Str.sp) SNO6119; assay: In vitro sensitivity test; assay type: cell-based; conditions: 25°C, 40 to 48 hours
Description: as §1, §2

[13] = system: H.pp (otherwise called Actinobacillus pleuropneumoniae) strain M-1; assay: Experimental H.pp infection to pig, through injection; assay type: in vivo; conditions: injection to thigh muscle one time, Dose 5 mg/kg; dissection 6 days after inoculation
Description: In these experiments, the compound (I) was applied to the designated animals by (1) oral administration, (2) incorporation into baits and (3) intramuscular injection, the details of which are explained below.
(3) Preparation of the MG infected fowls was performed in the same manner as in (1) above. Infection of H.pp (otherwise called Actinobacillus pleuropneumoniae) to cause pleuropneumonia in pig was performed by inoculating 5 ml of a fresh cultured strain (i.e. M-1) of H.pp to each nasopharyngeal of some 45 days pigs, each weighing 4 to 9 kg (4 to 5 pigs/group), followed by injection of the test compounds to each thigh muscle at a designated volume one time. Pigs were dissected 6 days after the inoculation. The evaluation of the antimicrobial activity was made by observation of the pneumonia symptomes in air sacs, number of dead body and degree of nodosity in air sacks on dissection.

[14] = count of fowl, bait 880 ppm/Day, 1.8 x 10³ CFU/fowl
[15] = oral 100 mg/kg, 9-days chicken, 1.7 x 10³ CFU/fowl
[16] = oral 100 mg/kg, 9-days chicken, 2.2 x 10³ CFU/fowl
[17] = oral 100 mg/kg, 10-days chicken, 1.2 x 10³ CFU/fowl
[18] = oral 100 mg/kg, 10-days chicken, 3.0 x 10³ CFU/fowl
[19] = oral 200 mg/kg, 9-days chicken, 1.7 x 10³ CFU/fowl
[20] = oral 200 mg/kg, 9-days chicken, 2.2 x 10³ CFU/fowl
[21] = oral 200 mg/kg, 10-days chicken, 1.2 x 10³ CFU/fowl
[22] = oral 200 mg/kg, 10-days chicken, 3.0 x 10³ CFU/fowl

CN(C)[C@@H]1C(O)=C(C(N)=O)C(=O)[C@@]2(O)C(O)=C3C(=O)c4c(O)ccc(Cl)c4[C@@](C)(O)[C@H]3C[C@@H]12 [CTC, chlorotetracycline hydrochloride, reference compound]
In vitro Sensitivity Test Mh ST-11 [1]: 1.56 µg/mL | In vitro Sensitivity Test MG T-7-T [2]: 6.25 µg/mL | In vitro Sensitivity Test MS F10-2as [3]: 0.39 µg/ml | In vitro Sensitivity Test MS 1853 [4]: 0.05 µg/mL | In vitro Sensitivity Test MG S6 [5]: 12.5 µg/mL | Number of fowl having air sack lesions (TS-resistant MG; bait 880 ppm/Day, 1.8 x 10³ CFU/fowl): 4 | Infectious index Left air sack + (TS-resistant MG; [14]): 0 | Infectious index Left air sack ++ (TS-resistant MG; [14]): 0 | Infectious index Left air sack +++ (TS-resistant MG; [14]): 0 | Infectious index Left air sack - (TS-resistant MG; [14]): 5 | Infectious index Right air sack + (TS-resistant MG; [14]): 3 | Infectious index Right air sack ++ (TS-resistant MG; [14]): 1 | Infectious index Right air sack +++ (TS-resistant MG; [14]): 0 | Infectious index Right air sack - (TS-resistant MG; [14]): 1 | In vitro Sensitivity Test S.au 209P [6]: 0.1 µg/mL | In vitro Sensitivity Test E.coli JC-2 [7]: 0.39 µg/mL | In vitro Sensitivity Test S.typhi 13311 [8]: 0.1 µg/mL

C[C@H]1c2cccc(O)c2C(=O)C2=C(O)[C@]3(O)C(=O)C(C(N)=O)=C(O)[C@@H](N(C)C)[C@@H]3[C@@H](O)[C@@H]21 [DOXY, doxycycline, reference compound]
In vitro Sensitivity Test MG T-7-T [2]: 0.2 µg/mL | In vitro Sensitivity Test MS F10-2as [3]: 0.39 µg/ml | In vitro Sensitivity Test MS 1853 [4]: 0.1 µg/mL | In vitro Sensitivity Test MG S6 [5]: 0.2 µg/mL | Infectious index Left air sack + [9, 15]: 0 | Infectious index Left air sack ++ [9, 15]: 0 | Infectious index Left air sack +++ [9, 15]: 0 | Infectious index Left air sack - [9, 15]: 5 | Infectious index Right air sack + [9, 15]: 0 | Infectious index Right air sack ++ [9, 15]: 1 | Infectious index Right air sack +++ [9, 15]: 0 | Infectious index Right air sack - [9, 15]: 4 | Infectious index Left air sack + [9, 16]: 0 | Infectious index Left air sack ++ [9, 16]: 0 | Infectious index Left air sack +++ [9, 16]: 0 | Infectious index Left air sack - [9, 16]: 5 | Infectious index Right air sack + [9, 16]: 0 | Infectious index Right air sack ++ [9, 16]: 1 | Infectious index Right air sack +++ [9, 16]: 0 | Infectious index Right air sack - [9, 16]: 4 | Infectious index Left air sack + [9, 17]: 0 | Infectious index Left air sack ++ [9, 17]: 0 | Infectious index Left air sack +++ [9, 17]: 0 | Infectious index Left air sack - [9, 17]: 5 | Infectious index Right air sack + [9, 17]: 0 | Infectious index Right air sack ++ [9, 17]: 1 | Infectious index Right air sack +++ [9, 17]: 0 | Infectious index Right air sack - [9, 17]: 4 | Infectious index Left air sack + [9, 18]: 0 | Infectious index Left air sack ++ [9, 18]: 0 | Infectious index Left air sack +++ [9, 18]: 0 | Infectious index Left air sack - [9, 18]: 5 | Infectious index Right air sack + [9, 18]: 0 | Infectious index Right air sack ++ [9, 18]: 1 | Infectious index Right air sack +++ [9, 18]: 0 | Infectious index Right air sack - [9, 18]: 4 | Infectious index Left air sack + [9, 19]: 1 | Infectious index Left air sack ++ [9, 19]: 0 | Infectious index Left air sack +++ [9, 19]: 0 | Infectious index Left air sack - [9, 19]: 4 | Infectious index Right air sack + [9, 19]: 0 | Infectious index Right air sack ++ [9, 19]: 1 | Infectious index Right air sack +++ [9, 19]: 0 | Infectious index Right air sack - [9, 19]: 4 | Infectious index Left air sack + [9, 20]: 1 | Infectious index Left air sack ++ [9, 20]: 0 | Infectious index Left air sack +++ [9, 20]: 0 | Infectious index Left air sack - [9, 20]: 4 | Infectious index Right air sack + [9, 20]: 0 | Infectious index Right air sack ++ [9, 20]: 1 | Infectious index Right air sack +++ [9, 20]: 0 | Infectious index Right air sack - [9, 20]: 4 | Infectious index Left air sack + [9, 21]: 1 | Infectious index Left air sack ++ [9, 21]: 0 | Infectious index Left air sack +++ [9, 21]: 0 | Infectious index Left air sack - [9, 21]: 4 | Infectious index Right air sack + [9, 21]: 0 | Infectious index Right air sack ++ [9, 21]: 1 | Infectious index Right air sack +++ [9, 21]: 0 | Infectious index Right air sack - [9, 21]: 4 | Infectious index Left air sack + [9, 22]: 1 | Infectious index Left air sack ++ [9, 22]: 0 | Infectious index Left air sack +++ [9, 22]: 0 | Infectious index Left air sack - [9, 22]: 4 | Infectious index Right air sack + [9, 22]: 0 | Infectious index Right air sack ++ [9, 22]: 1 | Infectious index Right air sack +++ [9, 22]: 0 | Infectious index Right air sack - [9, 22]: 4 | Number of fowl having air sack lesions [9, 15]: 1 | Number of fowl having air sack lesions [9, 16]: 1 | Number of fowl having air sack lesions [9, 17]: 1 | Number of fowl having air sack lesions [9, 18]: 1 | Number of fowl having air sack lesions [9, 19]: 1 | Number of fowl having air sack lesions [9, 20]: 1 | Number of fowl having air sack lesions [9, 21]: 1 | Number of fowl having air sack lesions [9, 22]: 5 | In vitro Sensitivity Test S.au 209P [6]: 0.1 µg/mL | In vitro Sensitivity Test E.coli JC-2 [7]: 0.39 µg/mL | In vitro Sensitivity Test S.typhi 13311 [8]: 0.1 µg/mL | In vitro Sensitivity Test H.pp M-1 [10]: 0.39 µg/mL

CCNCC12CCCC1CN(c1c(F)cc3c(=O)c(C(=O)O)cn(CC)c3c1F)C2.Cl (stereo not shown) [I-23]
In vitro Sensitivity Test Mh ST-11 [1]: 0.78 µg/mL | In vitro Sensitivity Test MG S6 [5]: 0.0125 µg/mL | Number of infected fowl/Number of fowl tested ([9]; oral 1.56 mg/kg, 9-days chicken): 5/5 | Number of infected fowl/Number of fowl tested ([9]; oral 3.13 mg/kg, 9-days chicken): 5/5 | Number of infected fowl/Number of fowl tested ([9]; oral 6.25 mg/kg, 9-days chicken): 0/5 | In vitro Sensitivity Test P.pis No. 2 [11]: 0.78 µg/mL | In vitro Sensitivity Test Str.sp SNO6119 [12]: 0.39 µg/mL | Number of infected fowl/Number of fowl tested (TS-resistant MG; bait 31.3 ppm/Day): 5/7 | Number of infected fowl/Number of fowl tested (TS-resistant MG; bait 62.5 ppm/Day): 0/7 | Number of infected fowl/Number of fowl tested (TS-resistant MG; bait 125 ppm/Day): 0/7 | Number of pig having nodi/Number of pig tested [13]: 2/4 | In vitro Sensitivity Test S.au 209P [6]: 0.1 µg/mL | In vitro Sensitivity Test E.coli JC-2 [7]: 0.78 µg/mL | In vitro Sensitivity Test S.typhi 13311 [8]: 1.56 µg/mL | In vitro Sensitivity Test H.pp M-1 [10]: 0.78 µg/mL
